Like-named read-outs stand apart in the source and are kept apart here.
Tests used:
Test in all cases: Postemergence herbicide evaluation, percent reduction in plant size vs untreated control, 21 days after treatment
[1] = tested on: Amaranthus rudis (AMATA); type: in vivo, Amaranthus rudis (tall water hemp); details: Amaranthus tuberculatus, post-emergence, 504 h, AMATA, postemergence, read-out: Control/Injury; for pest or weed control at 140 g/ha: rate 140 g ae/ha; for pest or weed control at 280 g/ha: rate 280 g ae/ha
Experimental: (§1) Plants were grown in a soil media composed of 90% by volume Promix BX (Premier Tech Horticulture, Quakertown, PA) and 10% Profile Greens Grade (Profile Products LLC, Buffalo Grove, IL). Promix BX contains approximately 83% Sphagnum Peat Moss, 13% Perlite, 5% vermiculite, and proprietary amounts of limestone, starter fertilizer, and wetting agent. Profile Greens Grade is a sand-sized granule formed from calcining illite and montmorillonite clay. Several seeds of each species were planted in 10 cm square pots and top watered twice daily. Plant material was propagated in a warm greenhouse with temperature ranging from 25 to 28° C. and 50 to 60% relative humidity at the Corteva Global Headquarters (Indianapolis, Indiana, USA). Natural light was supplemented with 1000-watt metal halide overhead lamps with an average illumination of 500 μE m^−2 s^−1 photosynthetic active radiation for 16 consecutive hours each day. Plants were top-watered prior to herbicide application and sub-watered after herbicide application.
(§2) Appropriate amounts of test materials were weighed out into glass vials in their technical form to deliver either 140 or 280 g acid equivalent (ae)/ha. The samples were dissolved in 3 ml of Solvent 1. Solvent 1 is 97% acetone and 3% dimethyl sulfoxide and serves as a general-purpose solvent (GPS) for dissolving technical materials. […] The samples were then diluted to their final concentration using 17 ml of solvent 2 for a total of 20 ml of spray solution. Solvent 2 contains 41.58% GPS, 45.53% water, 11.88% isopropyl alcohol, 0.99% crop oil concentrate and 0.02% Trition X-155 surfactant. All percentages are listed on a volume basis. Dicamba diglycolamine was applied as a formulated herbicide, Clarity™ and diluted with solvent 2 to compare all materials in the same spray solution.
(§3) Herbicide applications were made to 3 to 4 replicates of each plant species at the 2 to 8 leaf stage, depending on the species. Treatments were applied with a research track-sprayer (Generation III Research Sprayer manufactured by DeVries Manufacturing in Hollandale, MN, USA) calibrated to deliver a spray volume of 187 L/ha. The track-sprayer was fitted with an 8003E nozzle from Spray Systems Company (North Avenue and Schmale Road, P.O. Box 7900, Wheaton, IL 60187), and used a spray pressure of 276 kPa pressure and a speed of 3.1 km/h. The nozzle height was 46 cm above the plant canopy. The experimental design used for the trials was a randomized complete block with 3 or 4 replications per treatment. After application, plants were placed on carts according to the randomization and returned to the greenhouse. Plants were sub-watered after treatment with Indianapolis city water or fertilized three times a week with a commercial fertilizer solution (Jack's Professional 15-5-15 4 Ca 2 Mg fertilizer (manufactured by JR PETERS INC., 6656 Grant Way, Allentown, PA 18106; www.jrpeters.com). Percent visual control assessments were made on a scale of 0 to 100% (where 0 was no control and 100 was complete plant death) at 7, 14, and 21 days after treatment.
(§4) In conformity with the methods outlined in Example 49, the effect of representative experimental compounds on the growth of Amaranthus rudis (AMATA), common name tall water hemp, was determined at 2 different levels (respectively, 140 and 280 g acid equivalent (ae)/ha) of the experimental actives tested. Plants were treated with one of the compounds, a control plant was not treated. Twenty-one days after treatment, the plants were measured. The data is present as a percent reduction in plant size relative to the untreated control.

[2] = tested on: Ambrosia artemisiifolia (AMBEL); type: in vivo, Ambrosia artemisiifolia (common ragweed); details: post-emergence, 504 h, AMBEL, postemergence, read-out: Control/Injury; for pest or weed control at 140 g/ha: rate 140 g ae/ha; for pest or weed control at 280 g/ha: rate 280 g ae/ha
Experimental: as §1, §2, §3
as §4, with “Ambrosia artemisiifolia (AMBEL), (common ragweed),” for “Amaranthus rudis (AMATA), common name tall water hemp,”

[3] = tested on: Kochia scoparia (KCHSC); type: in vivo; details: KCHSC, postemergence; for pest or weed control at 140 g/ha / pest or weed control at 280 g/ha: Bassia scoparia, post-emergence, 504 h, read-out: Control/Injury; for pest or weed control at 280 g/ha: rate 280 g ae/ha
Experimental: as §1, §2, §3
as §4, with “Kochia scoparia (KCHSC)” for “Amaranthus rudis (AMATA), common name tall water hemp,”

[4] = tested on: Amaranthus palmeri (AMAPA); type: in vivo, Amaranthus palmeri (Palmer amaranth); details: post-emergence, 504 h, postemergence, read-out: Control/Injury; for pest or weed control at 140 g/ha: rate 140 g ae/ha; for pest or weed control at 280 g/ha: rate 280 g ae/ha
Experimental: as §1, §2, §3
as §4, with “palmeri (AMAPA),” for “rudis (AMATA),”, “name, Palmer amaranth,” for “name tall water hemp,”

[5] = tested on: Conyza canadensis (L.) (ERICA); type: in vivo, Conyza canadensis (L.) (Horseweed); details: Erigeron canadensis, post-emergence, 504 h, ERICA, postemergence, read-out: Control/Injury; for pest or weed control at 140 g/ha: rate 140 g ae/ha; for pest or weed control at 280 g/ha: rate 280 g ae/ha
Experimental: as §1, §2, §3
as §4, with “Conyza canadensis (L.), (ERICA),” for “Amaranthus rudis (AMATA),”, “name, Horseweed,” for “name tall water hemp,”

[6] = rate 140 g ae/ha, percent reduction vs untreated, 21 days after treatment
[7] = percent reduction vs untreated, 21 days after treatment
[8] = R-AMAPA, percent reduction vs untreated control, 21 days after treatment
[9] = percent reduction vs untreated control, 21 days after treatment

COc1c(Cl)ccc(Cl)c1C(=O)O/N=C(\N)CCCC/C(N)=N/OC(=O)c1c(Cl)ccc(Cl)c1OC [Compound A-145]
pest or weed control at 140 g/ha [1]: 60%
pest or weed control at 280 g/ha [1]: 64%
pest or weed control at 140 g/ha [2]: 88%
pest or weed control at 280 g/ha [2]: 96%
pest or weed control at 140 g/ha [3, 6]: 94%
pest or weed control at 280 g/ha [3, 7]: 91%
pest or weed control at 140 g/ha [4, 8]: 55%
pest or weed control at 280 g/ha [4, 8]: 65%
pest or weed control at 140 g/ha [5, 7]: 83%
pest or weed control at 280 g/ha [5, 7]: 78%

COc1c(Cl)ccc(Cl)c1C(=O)OCc1ccccc1 [Compound A-44]
pest or weed control at 280 g/ha [1]: 60%
pest or weed control at 280 g/ha [2]: 80%
pest or weed control at 140 g/ha ([3]; rate 140 g ae/ha): 60%
pest or weed control at 280 g/ha [3]: 90%
Control/Injury ([3]; rate 140 g ae/ha): 60
pest or weed control at 140 g/ha [4, 8]: 80%
pest or weed control at 280 g/ha [4, 8]: 85%

COc1c(Cl)ccc(Cl)c1C(=O)n1ncc2ccccc21 [Compound A-113]
pest or weed control at 140 g/ha [1]: 50%
pest or weed control at 280 g/ha [1]: 63%
pest or weed control at 140 g/ha [2]: 70%
pest or weed control at 280 g/ha [2]: 90%
pest or weed control at 140 g/ha [3, 6]: 85%
pest or weed control at 280 g/ha [3, 7]: 93%
pest or weed control at 140 g/ha ([4]; AMAPA): 40%
pest or weed control at 280 g/ha ([4]; AMAPA): 70%
pest or weed control at 140 g/ha [5]: 50%
pest or weed control at 280 g/ha [5]: 99%

COc1c(Cl)ccc(Cl)c1C(=O)O/N=C(\N)c1cccc2ccccc12 [Compound A-30]
pest or weed control at 140 g/ha [5, 9]: 50%
pest or weed control at 280 g/ha [5, 9]: 22%

COc1c(Cl)ccc(Cl)c1C(=O)NOc1ccc([N+](=O)[O-])cc1 [Compound A-97]
pest or weed control at 140 g/ha [1]: 55%
pest or weed control at 280 g/ha [1]: 68%
pest or weed control at 140 g/ha [2]: 73%
pest or weed control at 280 g/ha [2]: 90%
pest or weed control at 140 g/ha [3, 6]: 73%
pest or weed control at 280 g/ha [3, 7]: 88%
pest or weed control at 140 g/ha ([4]; AMAPA): 50%
pest or weed control at 280 g/ha ([4]; AMAPA): 65%
pest or weed control at 140 g/ha [5]: 18%
pest or weed control at 280 g/ha [5]: 40%
pest or weed control at 140 g/ha [5, 9]: 75%
pest or weed control at 280 g/ha [5, 9]: 70%

CCN(CC)OC(=O)c1c(Cl)ccc(Cl)c1OC [Compound A-64]
pest or weed control at 140 g/ha [1]: 3%
pest or weed control at 280 g/ha [1]: 2%
pest or weed control at 140 g/ha [2]: 5%
pest or weed control at 280 g/ha [2]: 12%
pest or weed control at 140 g/ha ([3]; rate 140 g ae/ha): 0%
pest or weed control at 280 g/ha [3]: 3%
pest or weed control at 140 g/ha [4, 8]: 3%
pest or weed control at 280 g/ha [4, 8]: 20%
pest or weed control at 140 g/ha [5, 9]: 3%
pest or weed control at 280 g/ha [5, 9]: 10%

COc1c(Cl)ccc(Cl)c1C(=O)O/N=C/c1ccc(/C=N/OC(=O)c2c(Cl)ccc(Cl)c2OC)cc1 [Compound A-57]
pest or weed control at 140 g/ha [1]: 95%
pest or weed control at 140 g/ha [2]: 95%
pest or weed control at 280 g/ha [2]: 98%
pest or weed control at 140 g/ha ([3]; rate 140 g ae/ha): 92%
pest or weed control at 280 g/ha [3]: 100%
pest or weed control at 280 g/ha [4, 8]: 100%

COc1c(Cl)ccc(Cl)c1C(=O)O/N=C(\N)c1ccc2[nH]cnc2c1 [Compound A-29]
pest or weed control at 140 g/ha [5, 9]: 40%
pest or weed control at 280 g/ha [5, 9]: 40%

COc1c(Cl)ccc(Cl)c1C(=O)C(Cl)(Cl)Cl [Compound A-96]
pest or weed control at 140 g/ha [5, 9]: 0%
pest or weed control at 280 g/ha [5, 9]: 0%

COc1c(Cl)ccc(Cl)c1C(=O)Nc1ccncc1 [Compound A-61]
pest or weed control at 140 g/ha [1]: 85%
pest or weed control at 280 g/ha [1]: 90%
pest or weed control at 140 g/ha [2]: 99%
pest or weed control at 280 g/ha [2]: 98%
pest or weed control at 140 g/ha ([3]; rate 140 g ae/ha): 98%
pest or weed control at 280 g/ha [3]: 99%
pest or weed control at 140 g/ha [4, 8]: 85%
pest or weed control at 280 g/ha [4, 8]: 100%

COc1c(Cl)ccc(Cl)c1C(=O)O/N=C(\N)c1ccc2[nH]ccc2c1 [Compound A-28]
pest or weed control at 140 g/ha [5, 9]: 70%
pest or weed control at 280 g/ha [5, 9]: 83%

COc1c(Cl)ccc(Cl)c1C(=O)O/N=C(\N)c1cccc(Cl)c1 [Compound A-12]
pest or weed control at 140 g/ha [5, 9]: 72%
pest or weed control at 280 g/ha [5, 9]: 87%

COc1c(Cl)ccc(Cl)c1C(=O)O/N=C(\N)c1cc(Cl)cc(Cl)c1 [Compound A-16]
pest or weed control at 140 g/ha [5, 9]: 68%
pest or weed control at 280 g/ha [5, 9]: 78%

COc1c(Cl)ccc(Cl)c1C(=O)O/N=C(\C)c1cccnc1 [Compound A-47]
pest or weed control at 280 g/ha [1]: 75%
pest or weed control at 140 g/ha [2]: 85%
pest or weed control at 280 g/ha [2]: 100%
pest or weed control at 140 g/ha ([3]; rate 140 g ae/ha): 98%
pest or weed control at 280 g/ha [3]: 100%
pest or weed control at 140 g/ha [4, 8]: 90%
pest or weed control at 280 g/ha [4, 8]: 95%

From US20240122179A1, “AUXINIC HERBICIDES AND METHODS OF USE THEREOF” (CORTEVA AGRISCIENCE LLC, priority 2021, published 2024)
